Reference: patent US20220370636A1, “NICOTINAMIDE ADENINE DINUCLEOTIDE ACTIVATOR AND USE THEREOF” (University of South Florida, priority 2021, published 2022)
Entries after “also recorded” stand apart in the source; their conditions may differ.

Experiments:
C2C12 cells [1] = test: LPS induced LDH release in C2C12 skeletal myotubes; type: cell-based, mouse; settings: P7C3 1 μM 24 hours
db/db mice [2] = test: Electrocardiography in db/db mice; type: in vivo; settings: 10 mg/kg/day i.p., 4 weeks, vs vehicle
Procedure: Electrocardiography (ECG). Mouse ECG recordings were obtained utilizing 2-3% isoflurane/oxygen anesthesia in lead II configuration. ECGs were acquired for a total duration of 15 min, with 1 min recordings obtained at 5-minute intervals. Heart rate was monitored, while ECG traces were acquired using PowerLab system operated with LabChart 7.2 software (AD Instruments, UK). Data were analyzed offline using the ECG module of LabChart 7.2 software, as reported elsewhere. The intervals (ms) of QTc, JT, and ST elevation (mV) were measured. QT interval was measured from the start of the Q peak to the point where the T wave returns to the isoelectric baseline (TP baseline), and heart rate corrected QT (QTc) interval was obtained using the formula (QTc=QT/(RR/100)^1/2).

[3] = test system: Nampt+/− and littermate WT mice; test: Glucose tolerance test in Nampt+/- and littermate WT mice; type: in vivo; settings: vs vehicle
C2C12 cells [4] = test: MTT cytotoxicity study in C2C12 cells; type: cell-based, mouse
Procedure: Cytotoxicity study. The cytotoxicity of P7C3 nanoparticles (P7C3 NP), and the skeletal muscle-specific aptamer-based targeted P7C3 nanoparticles (P7C3 NP Apt) were determined using the MTT assay in C2C12 cells and was compared with the P7C3 solution, DMSO and control media. Briefly, the mouse C2C12 myoblasts were seeded at a seeding density of 10,000 cells/well in three 96-well plates (Corning, N.Y., USA) in 100 μl of growth medium, i.e., DMEM F12 supplemented with 10% FBS, and 1% P/S and were allowed to grow for 24, 48, and 72 h after an initial attachment period of 24 h, which was considered as time 0. […] The 0 nM concentration had the solvent vehicle control DMSO, in which the drugs P7C3, 7C3 NPs, and P7C3 NPs Apt were dissolved. The MTT reagent solution (1 mg/mL) was added to each well after 24, 48, and 72 h of cell proliferation and the assay was performed according to the manufacturer's protocol (Thermo Fisher Scientific CyQUANT™ MTT Cell Viability Assay kit, USA). The spectrophotometer reading was measured at 540 nm wavelength using a Synergy H1 Hybrid Multi-Mode Reader. Cell viability was calculated and plotted, considering the optical density of solvent vehicle control DMSO wells as 100% viable.

RAW264.7 cells = test: qRT-PCR of inflammatory genes in LPS-treated RAW264.7 cells; type: cell-based; settings: LPS 1 μg/ml + P7C3 1 μM, 24 hours
Procedure: FIGS. 2A and 2B show macrophage: LPS induced inflammation and recovery via P7 markers such as NF-κb, IL-1β, IL-6. […] RAW264.7 cells was treated with LPS (1 μg/ml) and P7C3 (1 μM) for 24 hours. The isolated mRNA was subjected qRT-PCR using iScript cDNA Synthesis Kit (Bio-Rad, Cat #: 1706691) and iTaq Universal SYBR Green Supermix (Bio-Rad, Cat #: 1725121) in iCycler iQ Real Time PCR Detection System (Bio-Rad). The value of 2^-ΔΔCt was calculated and expressed as a Mean±SEM (n=6). The statistical analysis was performed using two-way ANOVA with Tukey's multiple comparisons test in GraphPad Prism 8.4.3, and p≤0.05 was considered statistically significant. […]

db/db mice [5] = test: Fasting blood glucose and GTT in db/db mice (Example 5); type: in vivo
From the text: Fasting blood glucose. Mice were fasted overnight, and the tail vein blood was used for measuring the blood glucose levels of the diabetic mice treated with either Vehicle (db/db Veh) or P7C3 (db/db P7C3) for 4 weeks.
Glucose tolerance test. […] Blood samples were obtained by the submandibular puncture technique.

C2C12 cells [6] = test: Scratch (wound closure) assay in C2C12 cells; type: cell-based, mouse; settings: for percent wound closure: 16 h, vs control cells
Procedure: In vitro model (C2C12 skeletal muscle myoblast) of scratch assay (wound) was created by using pipette tip and recovery of cells was monitored for 16 hours after the scratch. The percent wound closure was measured by the area indicated (FIG. 5B).
Scratch assay in C2C12 cells. C2C12 cells were seeded into either 6-well or 12-well plates and allowed to grow up to 90% confluence. Scratch or wound injury was induced by streaking the plate (2-3 streaks/well) using a 1000 μL sterilized pipette tip in each well. Treatments were performed with the vehicle or P7C3 groups within the cell culture media. Images were taken of each streak immediately after with an Echo Rebel microscope, and the cell culture plates were then placed in the incubator for 16 h. After 16 h, images were obtained at the same location of the streaks utilizing the coordinates marked. The ImageJ software (NIH, USA) was utilized to calculate the areas of the scratches at the 0 h and 16 h time point, with the area at 16 h divided by the area at 0 h to determine the percent wound closure.
Three sets of experiments were performed with this assay to determine the percent wound closure with the P7C3 solution, the P7C3 NPs, the A01B conjugate P7C3 NPs, and the P7C3 scrambled aptamer NPs. For assessing the effects of the P7C3 solution on percent wound closure, the cells were treated with the vehicle control (DMSO) and 100 nM-2 μM P7C3. For determining the effect of P7C3 NPs, the cells were treated with the vehicle control (blank NPs) and 10 nM-1 μM P7C3 NPs. Finally, for the targeted A01B conjugated P7C3 NPs and scrambled aptamer conjugated P7C3 NPs, the cells were treated with the vehicle controls (blank aptamer conjugated NPs) and 100 nM each of both aptamers conjugated NPs.

OC(CNc1ccccc1)Cn1c2ccc(Br)cc2c2cc(Br)ccc21 (stereo not drawn) [P7C3, 3,6-Dibromo-a-[(phenylamino)methyl]-9H-carbazole-9-ethanol]
LPS induced LDH release (inflammation in vitro) (C2C12 cells [1]): attenuated | JT interval (db/db mice [2]): significantly attenuated | QTc interval (db/db mice [2]): significantly attenuated | ST elevation (db/db mice [2]): significantly attenuated | GTT circulating blood glucose levels ([3]; Nampt littermate WT mice, single dose 10 mg/kg i/p): significant decrease | GTT percent AUC ([3]; Nampt littermate WT mice): significant decrease | GTT blood glucose levels ([3]; Nampt+/− mice, single dose 10 mg/kg i/p): did not show any significant effect | GTT percent AUC ([3]; Nampt+/− mice): no significant differences | cytotoxicity (MTT cell viability) (C2C12 cells [4]; 0, 10, 500, 1000 nM, 24, 48, 72 h): not toxic | cell viability (C2C12 cells [4]; 10 nM, 72 h, vs control cells): significantly higher | IL-1β expression (RAW264.7 cells): significantly decreased | IL-6 expression (RAW264.7 cells): decreased | IL-10 expression (RAW264.7 cells): decreased | NF-κb expression (RAW264.7 cells): significantly decreased | TNFα expression (RAW264.7 cells): significantly decreased | GTT decrease in circulating blood glucose from 30 minutes onwards (db/db mice [5]; db/db, 4 weeks, between treatment groups): non-significant | GTT area under curve (db/db mice [5]; db/db, trapezium method, p=0.0021): significant difference | fasting blood glucose levels (db/db mice [5]; overnight fasted db/db, 10 mg/kg/day i.p., 4 weeks, vs vehicle): significant decrease | percent wound closure (C2C12 cells [6]; 10 nM): not significant | percent wound closure (C2C12 cells [6]; 100 nM): not significant | percent wound closure (C2C12 cells [6]; 500 nM): significantly increased | percent wound closure (C2C12 cells [6]; 1 μM): significantly increased; also recorded: significantly higher | percent wound closure (C2C12 cells [6]; 2 μM): significantly increased | gap closure at 16 hrs (C2C12 cells [6]; C2C12 cells, 1 μM or 100 nM for 24 hours followed by wire injury): significantly augmented
